Oligonucleotides are written 5' to 3', each unit as a sugar letter and its base; * is a phosphorothioate linkage, no mark a phosphodiester; rarer units and linkages stand in square brackets, end groups in braces. Plain capitals give the bases only. d = 2'-deoxy (DNA); m = 2'-O-methyl
Experiments:
XIAP mRNA [1] = test: XIAP mRNA knock-down in H460 cells (real-time RT-PCR / TaqMan); format: cell-based, human; conditions: 2 × 2 MBO; NCI-H460 cells, 9 hours post-transfection; relative level (mock control 1.01)
XIAP mRNA [2] = test: as above; format: cell-based, human
Experimental: RNA was extracted from cells lysed in RLT buffer (QIAGEN, Valencia, Calif.), and purified using QIAGEN RNeasy columns/kits. Real-time quantitative PCR was performed on a Perkin-Elmer ABI 7700 Prism PCR machine. RNA was reverse transcribed and amplified according to the TaqMan Universal PCR Master Mix protocol of PE Biosystems, using primers and probes designed to specifically recognize XIAP, HIAP1, survivin, or GAPDH. For human survivin, the forward primer was 5′-[…]-3′ (SEQ ID NO: 263), the reverse primer was 5′-GAAAGGAAAGCGCAACCG-3′ (SEQ ID NO: 264), and the probe was 5′-(FAM)[…](TAMRA)-3′ (SEQ ID NO: 265). For human HIAP1, the forward primer was 5′-[…]-3′ (SEQ ID NO: 266), the reverse primer was 5′-[…]-3′ (SEQ ID NO: 267), and the probe was 5′-(FAM)[…](TAMRA)-3′ (SEQ ID NO: 268). For human XIAP, the forward primer was 5′-[…]-3′ (SEQ ID NO: 269), the reverse primer was 5′-[…]-3′ (SEQ ID NO: 270), and the probe was 5′-(FAM)[…](TAMRA)-3′ (SEQ ID NO: 271). For human GAPDH, the forward primer was 5′-GAAGGTGAAGGTCGGAGTC-3′ (SEQ ID NO: 272), the reverse primer was 5′-GAAGATGGTGATGGGATTC-3′ (SEQ ID NO: 273), and the probe was 5′-(JOE)[…](TAMRA)-3′ (SEQ ID NO: 274). FAM is 6-carboxyfluoroscein, JOE is 6-carboxy-4,5-dichloro-2,7-dimethoxyfluoroscein, and TAMRA is 6-carboxy-N,N,N′,N′-tetramethylrhodamine. FAM and JOE are 5′ reporter dyes, while TAMRA is a 3′ quencher dye.
Relative quantification of gene expression was performed as described in the PE Biosystems manual using GAPDH as an internal standard. The comparative Ct (cycle threshold) method was used for relative quantitation of IAP mRNA levels compared to GAPDH mRNA levels. Briefly, real-time fluorescence measurements were taken at each PCR cycle and the threshold cycle (Ct) value for each sample was calculated by determining the point at which fluorescence exceeded a threshold limit of 30 times the baseline standard deviation. The average baseline value and the baseline SD are calculated starting from the third cycle baseline value and stopping at the baseline value three cycles before the signal starts to exponentially rise. The PCR primers and/or probes for the specific IAPs were designed to span at least one exon-intron boundary separated by 1 kb or more of genomic DNA, to reduce the possibility of amplifying and detecting genomic DNA contamination. The specificity of the signal, and possible contamination from DNA, were verified by treating some RNA samples with either DNase or RNase, prior to performing the reverse transcription and PCR reaction steps.
A portion of the 96 nucleobase oligomers depicted in Table 2 were rescreened for their ability to knock-down XIAP mRNA in NCI-H460 cells at […] post-transfection.
One day prior to transfection, H460 cells were plated in 6- or 96-well tissue culture plates. Phosphorothioate antisense oligonucleotides were delivered into cells with Lipofectamine 2000 (Life Technologies) in the form of liposome-oligonucleotide complexes. Following a 4.5 or 6 h transfection, the transfection medium was replaced with RPMI medium containing 10% FBS, and the cells incubated for another 24 or 48 h.
Total RNA from H460 cells treated with liposome-oligonucleotide complexes for 6 hours was immediately isolated using RNeasy mini spin columns and DNase treatment (QIAGEN, Valencia, Calif.). Specific XIAP mRNA was measured using a real-time quantitative RT-PCR method. […]

Row | Substance | XIAP RNA (XIAP mRNA [1]) | XIAP down-regulation H460 RNA (XIAP mRNA [2])
1 | AAAATTCTAAGTACCTGCA (mA*mAdAdAdTdTdCdTdAdAdGdTdAdCdCdTdGmC*mA; antisense) [Code A1] | 0.46 | 48%
2 | AAAGCATAAAATCCAGCTC (antisense; sugars from the 5' end m2 d15 m2, backbone, methylation of C and T or U not given here; further chemistry not fully specified) [Code C8] | 1.01 | 16%
3 | AAGCAGTGCACTTGGTCAC (antisense; sugars from the 5' end m2 d15 m2, linkages s1 o16 s1 (s phosphorothioate, o phosphodiester), methylation of C not given here) [Code G6] |  | 69%
4 | AAGCTTCTCCTCTTGCAGG (antisense; sugars from the 5' end m2 d15 m2, linkages s1 o16 s1 (s phosphorothioate, o phosphodiester), methylation of C not given here) [Code F10] | 0.64 | 51%
5 | AAGTAAAGATCCGTGCTTC (antisense; sugars from the 5' end m2 d15 m2, backbone, methylation of C and T or U not given here; further chemistry not fully specified) [Code H7] | 0.49 | 63%
6 | AAGTCAGTTCACATCACAC (antisense; sugars from the 5' end m2 d15 m2, linkages s1 o16 s1 (s phosphorothioate, o phosphodiester), methylation of C not given here) [Code F11] | 0.36 | 64%
7 | AATGTGAAACACAAGCAAC (antisense AANGNGAAACACAAGCAAC; sugars from the 5' end m2 d15 m2, linkages s1 o16 s1 (s phosphorothioate, o phosphodiester), the base at N not given here) [Code C3] | 0.55 | 43%
8 | ACACGACCGCTAAGAAACA (antisense ACACGACCGCNAAGAAACA; sugars from the 5' end m2 d15 m2, linkages s1 o16 s1 (s phosphorothioate, o phosphodiester), the base at N not given here) [Code H2] | 0.56 | 46%
9 | ACAGGACTACCACTTGGAA (antisense; chemistry not fully specified) [Code B4] |  | 76%
10 | ACATAGTGTTTTGCCACTT (antisense; sugars from the 5' end m2 d15 m2, backbone, methylation of C and T or U not given here; further chemistry not fully specified) [Code F12] | 0.26 | 74%
11 | ACATTATATTAGGAAATCC (mA*mCdAdTdTdAdTdAdTdTdAdGdGdAdAdAdTmC*mC; antisense) [Code D3] | 0.68 | 30%
12 | ACTGGGCTTCCAATCAGTT (antisense; sugars from the 5' end m2 d15 m2, backbone, methylation of C and T or U not given here; further chemistry not fully specified) [Code H8] | 0.61 | 
13 | AGATGGTATCATCAATTCT (antisense; sugars from the 5' end m2 d15 m2, backbone, methylation of C and T or U not given here; further chemistry not fully specified) [Code F9] | 0.97 | 19%
14 | AGCACATGGGACACTTGTC (antisense; sugars from the 5' end m2 d15 m2, backbone, methylation of C and T or U not given here; further chemistry not fully specified) [Code B11] | 0.39 | 63%
15 | AGCACATTGTTTACAAGTG (antisense; sugars from the 5' end m2 d15 m2, backbone, methylation of C and T or U not given here; further chemistry not fully specified) [Code A11] | 0.36 | 68%
16 | AGTATGAAATATTTCTGAT (antisense; sugars from the 5' end m2 d15 m2, backbone and T or U not given here; further chemistry not fully specified) [Code E1] | 0.31 | 69%
17 | AGTTCTCAAAAGATAGTCT (antisense; sugars from the 5' end m2 d15 m2, backbone and T or U not given here; further chemistry not fully specified) [Code G5] | 0.68 | 30%
18 | ATATTTCTATCCATACAGA (antisense; sugars from the 5' end m2 d15 m2, backbone, methylation of C and T or U not given here; further chemistry not fully specified) [Code G10] | 0.49 | 56%
19 | ATGATCTCTGCTTCCCAGA (antisense; sugars from the 5' end m2 d15 m2, backbone and T or U not given here; further chemistry not fully specified) [Code E5] | 0.52 | 46%
20 | ATTATTTTCTTAATGTCCT (antisense; sugars from the 5' end m2 d15 m2, backbone, methylation of C and T or U not given here; further chemistry not fully specified) [Code A10] | 0.85 | 29%
21 | ATTCAAGGGATCAAAGTTG (antisense; sugars from the 5' end m2 d15 m2, backbone and T or U not given here; further chemistry not fully specified) [Code A2] | 0.42 | 58%
22 | ATTCAATCAGGGTAATAAG (antisense; sugars from the 5' end m2 d15 m2, backbone, methylation of C and T or U not given here; further chemistry not fully specified) [Code E11] | 0.52 | 48%
23 | ATTCGCACAAGTACGTGTT (antisense; sugars from the 5' end m2 d15 m2, backbone, methylation of C and T or U not given here; further chemistry not fully specified) [Code D12] | 0.23 | 77%
24 | ATTGGTTCCAATGTGTTCT (antisense; chemistry not fully specified) [Code F1] |  | 81%
25 | CAGATATATATGTAACACT (antisense; sugars from the 5' end m2 d15 m2, backbone and T or U not given here; further chemistry not fully specified) [Code C1] | 0.3 | 66%
26 | MAmUGACCACTTCCTCTATmGmG (ANGACCACNNCCNCNANGG; 2'-O-methyl modifications, chemistry not fully specified) [DE4 rev, reference compound] | 1.06 | 
27 | TATCCACTTATGACATAAA (antisense; chemistry not fully specified) [Code A3] |  | 27%

— patent publication US8012944B2, “Method for treating cancer using IAP antisense oligomer and chemotherapeutic agent” (Pharmascience Inc., priority 2003, dated 2011)
